According to PubChem BioAssay (NCI):
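48-hour exposure; five concentrations; linearly interpolated endpoints. GI50 marks 50% less growth. TGI: concentration producing complete growth inhibition.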

Experiments:
Assay in all cases: NCI tumour cell line growth inhibition, 48 h
UACC-62 melanoma = system: UACC-62 melanoma
BT-549 breast = system: BT-549 breast
M14 melanoma = system: M14 melanoma
KM12 colon = system: KM12 colon
HL-60(TB) leukemia = system: HL-60(TB) leukemia
MALME-3M melanoma = system: MALME-3M melanoma
SR leukemia = system: SR leukemia
LOX IMVI melanoma = system: LOX IMVI melanoma
OVCAR-3 ovarian = system: OVCAR-3 ovarian
NCI-H460 lung = system: NCI-H460 lung

Nc1ccc(N=Nc2ccccc2)c(N)n1
GI50 (UACC-62 melanoma): 32.6 µM | TGI (UACC-62 melanoma): > 100 µM | GI50 (BT-549 breast): 16.6 µM | TGI (BT-549 breast): 46.1 µM | GI50 (M14 melanoma): 29.4 µM | TGI (M14 melanoma): 74.9 µM | GI50 (KM12 colon): 15.5 µM | TGI (KM12 colon): 56.6 µM | GI50 (HL-60(TB) leukemia): 27.5 µM | TGI (HL-60(TB) leukemia): > 100 µM | GI50 (MALME-3M melanoma): 48.5 µM | TGI (MALME-3M melanoma): > 100 µM | GI50 (SR leukemia): 18.1 µM | TGI (SR leukemia): > 100 µM | GI50 (LOX IMVI melanoma): 29 µM | TGI (LOX IMVI melanoma): > 100 µM | GI50 (OVCAR-3 ovarian): 20.2 µM | TGI (OVCAR-3 ovarian): 67.9 µM | GI50 (NCI-H460 lung): 29.1 µM | TGI (NCI-H460 lung): 97.4 µM
